What all share (format): biochemical
What all share (conditions): 10 μM, ATP near Km

One test concerns the target T1, MARK1 (Homo sapiens, UniProt Q9P0L2).
T1 construct: purchased Millipore, Inc. (KinaseProfiler service)
Briefly: KinaseProfiler MARK1. The source says:
(§1) The compound was run in duplicate at a concentration of ATP near the Km for each individual kinase according to Millipore's specifications.

A further test addresses T2, GSK3alpha (Homo sapiens, UniProt P49840).
T2 construct: purchased Millipore, Inc. (KinaseProfiler service)
Briefly: KinaseProfiler GSK3alpha.
From the text: as §1

A further test concerns the target T3, CLK2 (Homo sapiens, UniProt P49760).
T3 construct: purchased Millipore, Inc. (KinaseProfiler service)
Briefly: KinaseProfiler CLK2.
From the text: as §1

Another test has as its target T4, Pim-1 (Homo sapiens, UniProt P11309).
T4 construct: purchased Millipore, Inc. (KinaseProfiler service)
Briefly: KinaseProfiler Pim-1.
From the text: as §1

For the next test, the target named is T5, FGFR3 (Homo sapiens, UniProt P22607).
T5 construct: purchased Millipore, Inc. (KinaseProfiler service)
Briefly: KinaseProfiler FGFR3.
From the text: as §1

The next test concerns the target T6, MSK1 (Homo sapiens, UniProt O75582).
T6 construct: purchased Millipore, Inc. (KinaseProfiler service)
Briefly: KinaseProfiler MSK1.
From the text: as §1

The next test concerns the target T7, Flt1 (Homo sapiens, UniProt P17948).
T7 construct: purchased Millipore, Inc. (KinaseProfiler service)
Briefly: KinaseProfiler Flt1.
From the text: as §1

In a further test the target is T8, ErbB4 (Homo sapiens, UniProt Q15303).
T8 construct: purchased Millipore, Inc. (KinaseProfiler service)
Briefly: KinaseProfiler ErbB4.
From the text: as §1

A further test has as its target T9, EphA8 (Homo sapiens, UniProt P29322).
T9 construct: purchased Millipore, Inc. (KinaseProfiler service)
Briefly: KinaseProfiler EphA8.
From the text: as §1

The next test concerns the target T10, MARK2 (Homo sapiens, UniProt Q7KZI7).
T10 construct: purchased Millipore, Inc. (KinaseProfiler service)
Briefly: KinaseProfiler MARK2.
From the text: as §1

For a further test, the target named is T11, DMPK (Homo sapiens, UniProt Q09013).
T11 construct: purchased Millipore, Inc. (KinaseProfiler service)
Briefly: KinaseProfiler DMPK.
From the text: as §1

A further test concerns the target T12, CLK3 (Homo sapiens, UniProt P49761).
T12 construct: purchased Millipore, Inc. (KinaseProfiler service)
Briefly: KinaseProfiler CLK3.
From the text: as §1

Another test concerns the target T13, EphA2 (Homo sapiens, UniProt P29317).
T13 construct: purchased Millipore, Inc. (KinaseProfiler service)
Briefly: KinaseProfiler EphA2.
From the text: as §1

The target in the next test is T14, TNK2 (Homo sapiens, UniProt Q07912).
T14 construct: purchased Millipore, Inc. (KinaseProfiler service)
Briefly: KinaseProfiler TNK2.
From the text: as §1

The target in the next test is T15, MST3 (Homo sapiens, UniProt Q9Y6E0).
T15 construct: purchased Millipore, Inc. (KinaseProfiler service)
Briefly: KinaseProfiler MST3.
From the text: as §1

For a further test, the target named is T16, Bmx (Homo sapiens, UniProt P51813).
T16 construct: purchased Millipore (KinaseProfiler service)
Briefly: KinaseProfiler Bmx.
From the text: as §1

The target of another test is T17, TAO3 (Homo sapiens, UniProt Q9H2K8).
T17 construct: purchased Millipore, Inc. (KinaseProfiler service)
Briefly: KinaseProfiler TAO3.
From the text: as §1

The target of a further test is T18, NEK11 (Homo sapiens, UniProt Q8NG66).
T18 construct: purchased Millipore, Inc. (KinaseProfiler service)
Briefly: KinaseProfiler NEK11.
From the text: as §1

This note sets out measurements from patent US9809578B2, “Pyrazolyl urea, thiourea, guanidine and cyanoguanidine compounds as trkA kinase inhibitors” (Array BioPharma Inc., priority 2012, dated 2017).

T11 sequence (Q09013 whole entry): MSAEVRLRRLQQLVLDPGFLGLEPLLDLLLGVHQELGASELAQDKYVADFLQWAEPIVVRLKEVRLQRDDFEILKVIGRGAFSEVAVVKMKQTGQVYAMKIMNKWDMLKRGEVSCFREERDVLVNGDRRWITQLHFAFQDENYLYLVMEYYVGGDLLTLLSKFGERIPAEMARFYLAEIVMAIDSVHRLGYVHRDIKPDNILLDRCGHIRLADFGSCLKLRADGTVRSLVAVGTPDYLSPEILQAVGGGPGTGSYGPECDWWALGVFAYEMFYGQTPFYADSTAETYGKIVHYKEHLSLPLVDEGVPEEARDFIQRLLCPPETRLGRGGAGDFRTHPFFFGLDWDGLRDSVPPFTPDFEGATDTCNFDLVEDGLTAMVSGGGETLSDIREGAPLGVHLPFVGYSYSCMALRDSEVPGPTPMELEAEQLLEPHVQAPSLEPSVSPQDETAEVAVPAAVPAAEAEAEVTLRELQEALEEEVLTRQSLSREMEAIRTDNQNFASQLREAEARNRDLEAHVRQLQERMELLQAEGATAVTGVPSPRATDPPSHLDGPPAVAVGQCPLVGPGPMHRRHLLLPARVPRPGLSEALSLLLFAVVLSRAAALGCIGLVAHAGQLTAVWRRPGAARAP
T5 sequence (P22607 23-806): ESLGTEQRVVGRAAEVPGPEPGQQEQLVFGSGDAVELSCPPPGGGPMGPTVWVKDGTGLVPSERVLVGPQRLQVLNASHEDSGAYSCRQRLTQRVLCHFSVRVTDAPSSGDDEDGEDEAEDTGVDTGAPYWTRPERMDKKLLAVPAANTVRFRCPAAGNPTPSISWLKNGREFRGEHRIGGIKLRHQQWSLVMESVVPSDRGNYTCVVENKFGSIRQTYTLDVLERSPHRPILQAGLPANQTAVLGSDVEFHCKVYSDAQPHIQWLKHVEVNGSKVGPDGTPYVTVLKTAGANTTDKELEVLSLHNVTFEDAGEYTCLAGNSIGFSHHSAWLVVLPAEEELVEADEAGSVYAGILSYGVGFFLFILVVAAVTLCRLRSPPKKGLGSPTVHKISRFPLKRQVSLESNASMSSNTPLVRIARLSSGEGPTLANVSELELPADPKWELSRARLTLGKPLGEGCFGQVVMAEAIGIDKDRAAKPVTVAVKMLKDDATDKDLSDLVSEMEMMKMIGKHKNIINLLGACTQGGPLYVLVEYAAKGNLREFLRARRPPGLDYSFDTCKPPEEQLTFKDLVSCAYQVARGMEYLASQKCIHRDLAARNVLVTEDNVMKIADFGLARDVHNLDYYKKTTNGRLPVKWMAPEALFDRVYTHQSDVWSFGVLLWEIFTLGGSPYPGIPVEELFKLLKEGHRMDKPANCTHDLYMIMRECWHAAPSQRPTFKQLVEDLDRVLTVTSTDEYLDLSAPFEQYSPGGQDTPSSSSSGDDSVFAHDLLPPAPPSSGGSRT
T10 sequence (Q7KZI7 whole entry): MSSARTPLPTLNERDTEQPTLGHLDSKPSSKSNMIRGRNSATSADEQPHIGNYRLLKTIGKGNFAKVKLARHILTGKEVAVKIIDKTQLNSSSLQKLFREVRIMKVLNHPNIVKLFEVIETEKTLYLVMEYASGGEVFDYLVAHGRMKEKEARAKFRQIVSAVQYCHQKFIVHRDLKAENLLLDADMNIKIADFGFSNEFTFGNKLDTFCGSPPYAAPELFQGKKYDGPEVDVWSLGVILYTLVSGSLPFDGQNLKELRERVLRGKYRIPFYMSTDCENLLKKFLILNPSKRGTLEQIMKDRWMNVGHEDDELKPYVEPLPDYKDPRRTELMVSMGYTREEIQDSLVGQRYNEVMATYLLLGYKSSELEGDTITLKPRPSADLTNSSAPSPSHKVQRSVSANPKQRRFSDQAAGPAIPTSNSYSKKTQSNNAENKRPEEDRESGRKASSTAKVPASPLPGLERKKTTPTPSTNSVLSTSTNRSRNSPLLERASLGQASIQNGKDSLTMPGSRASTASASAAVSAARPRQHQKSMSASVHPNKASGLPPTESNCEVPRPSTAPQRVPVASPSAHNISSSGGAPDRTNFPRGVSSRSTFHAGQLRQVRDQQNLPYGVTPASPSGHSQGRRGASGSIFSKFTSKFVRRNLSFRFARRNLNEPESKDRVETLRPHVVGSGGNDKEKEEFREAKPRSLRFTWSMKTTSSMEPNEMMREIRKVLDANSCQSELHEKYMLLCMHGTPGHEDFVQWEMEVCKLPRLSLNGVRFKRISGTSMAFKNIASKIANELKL
T17 sequence (Q9H2K8 whole entry): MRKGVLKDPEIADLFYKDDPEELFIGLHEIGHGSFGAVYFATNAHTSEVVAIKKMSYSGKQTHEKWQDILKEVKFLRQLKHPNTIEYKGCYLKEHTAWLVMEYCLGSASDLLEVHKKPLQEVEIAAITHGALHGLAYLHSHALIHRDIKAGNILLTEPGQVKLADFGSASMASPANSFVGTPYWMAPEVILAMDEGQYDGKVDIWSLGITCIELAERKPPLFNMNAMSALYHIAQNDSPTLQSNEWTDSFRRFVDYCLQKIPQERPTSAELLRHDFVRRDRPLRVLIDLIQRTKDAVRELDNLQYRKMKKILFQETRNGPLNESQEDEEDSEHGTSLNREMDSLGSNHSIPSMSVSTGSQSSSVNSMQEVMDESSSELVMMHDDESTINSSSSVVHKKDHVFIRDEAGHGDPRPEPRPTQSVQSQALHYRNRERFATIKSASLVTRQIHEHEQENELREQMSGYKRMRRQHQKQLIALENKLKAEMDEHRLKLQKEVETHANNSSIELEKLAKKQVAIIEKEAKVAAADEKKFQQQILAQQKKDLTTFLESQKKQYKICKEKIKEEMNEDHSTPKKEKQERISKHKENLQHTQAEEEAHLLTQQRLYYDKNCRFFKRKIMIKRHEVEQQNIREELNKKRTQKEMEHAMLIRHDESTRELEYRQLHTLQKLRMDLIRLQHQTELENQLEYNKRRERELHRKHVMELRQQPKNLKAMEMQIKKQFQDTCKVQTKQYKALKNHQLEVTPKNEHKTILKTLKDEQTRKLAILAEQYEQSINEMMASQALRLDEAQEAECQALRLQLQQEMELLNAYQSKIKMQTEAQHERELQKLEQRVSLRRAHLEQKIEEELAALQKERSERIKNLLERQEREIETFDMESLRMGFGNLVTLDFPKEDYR
T6 sequence (O75582 whole entry): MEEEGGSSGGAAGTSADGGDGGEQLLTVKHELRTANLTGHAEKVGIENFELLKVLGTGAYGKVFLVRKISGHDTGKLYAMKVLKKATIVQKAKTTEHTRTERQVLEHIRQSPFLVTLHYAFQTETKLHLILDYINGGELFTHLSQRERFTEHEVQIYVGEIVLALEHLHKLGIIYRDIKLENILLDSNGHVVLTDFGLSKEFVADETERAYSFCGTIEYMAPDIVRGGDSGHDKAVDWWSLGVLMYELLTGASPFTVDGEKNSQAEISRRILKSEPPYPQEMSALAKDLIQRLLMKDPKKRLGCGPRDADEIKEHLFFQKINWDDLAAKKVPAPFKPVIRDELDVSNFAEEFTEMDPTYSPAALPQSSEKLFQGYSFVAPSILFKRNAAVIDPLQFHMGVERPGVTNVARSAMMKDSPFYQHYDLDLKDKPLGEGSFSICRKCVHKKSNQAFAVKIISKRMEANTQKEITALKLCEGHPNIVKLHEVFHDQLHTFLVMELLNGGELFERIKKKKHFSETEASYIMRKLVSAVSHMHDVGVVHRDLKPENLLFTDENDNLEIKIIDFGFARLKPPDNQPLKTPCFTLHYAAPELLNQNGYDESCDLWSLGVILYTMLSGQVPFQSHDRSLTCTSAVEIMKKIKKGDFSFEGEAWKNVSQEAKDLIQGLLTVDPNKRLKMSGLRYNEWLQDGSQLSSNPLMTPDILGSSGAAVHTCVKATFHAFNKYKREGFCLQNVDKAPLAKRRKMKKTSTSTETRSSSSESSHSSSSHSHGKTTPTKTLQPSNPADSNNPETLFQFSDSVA
T4 sequence (P11309 whole entry): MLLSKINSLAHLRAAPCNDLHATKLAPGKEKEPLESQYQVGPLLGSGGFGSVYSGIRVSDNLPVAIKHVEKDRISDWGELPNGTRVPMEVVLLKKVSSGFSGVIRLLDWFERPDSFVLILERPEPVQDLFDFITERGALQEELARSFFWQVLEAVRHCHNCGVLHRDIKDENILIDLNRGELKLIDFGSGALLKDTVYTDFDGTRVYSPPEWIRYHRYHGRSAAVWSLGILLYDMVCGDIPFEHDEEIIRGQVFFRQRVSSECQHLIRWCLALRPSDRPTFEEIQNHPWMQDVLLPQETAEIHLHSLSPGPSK
T2 sequence (P49840 whole entry): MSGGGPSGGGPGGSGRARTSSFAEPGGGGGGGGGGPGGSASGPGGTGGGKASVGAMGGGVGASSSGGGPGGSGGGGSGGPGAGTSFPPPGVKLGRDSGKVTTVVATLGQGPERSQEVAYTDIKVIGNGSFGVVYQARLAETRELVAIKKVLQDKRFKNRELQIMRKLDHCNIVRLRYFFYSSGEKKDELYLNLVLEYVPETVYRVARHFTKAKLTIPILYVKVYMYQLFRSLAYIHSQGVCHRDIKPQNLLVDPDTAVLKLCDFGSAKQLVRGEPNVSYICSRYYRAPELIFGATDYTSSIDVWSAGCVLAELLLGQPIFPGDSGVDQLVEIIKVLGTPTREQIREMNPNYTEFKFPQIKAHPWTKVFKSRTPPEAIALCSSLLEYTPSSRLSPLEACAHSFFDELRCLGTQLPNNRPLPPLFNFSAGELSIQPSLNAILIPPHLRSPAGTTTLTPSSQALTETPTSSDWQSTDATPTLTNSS

Consider `Cc1c(-c2cnn(C)c2)nn(-c2ccccc2)c1NC(=O)Nc1cc(C(F)(F)F)nn1-c1ccccc1` [Example 3, 1-(1′,4-dimethyl-1-phenyl-1H,1′H-[3,4′-bipyrazol]-5-yl)-3-(1-phenyl-3-(trifluoromethyl)-1H-pyrazol-5-yl)urea], for which the “Avg POC” value at MARK1 was determined as 112 POC; on GSK3alpha it was 170 POC; on CLK2, 135 POC; on Pim-1, 119.5 POC; at FGFR3 it was 116.5 POC; on MSK1, 152.5 POC. Besides, the “Avg POC” value at Flt1 was 91.5 POC; at ErbB4, 126 POC; at EphA8, 122 POC; on MARK2, 106.5 POC; on DMPK, 105 POC; at CLK3, 104 POC. Besides, the “Avg POC” value at EphA2 amounted to 120 POC; at TNK2, 118.5 POC; at MST3, 146.5 POC; at Bmx it was 114.5 POC; at TAO3, 94 POC; at NEK11 it was 110 POC.
